Data from US20030181527A1, “Novel formulations of alpha-2,4-disulfophenyl-n-tert-butylnitrone” (priority 2000, published 2003).

Key:
[1] = Stability versus vial headspace volume (fill volume); type: physicochemical; conditions: 400 mg/ml; for Final Amount of Aldehyde (II): pH 8.5, headspace not purged, 2 months +40° C./75% RH
Experimental: A concentrated aqueous solution of α-(2,4-disulfophenyl)-N-tert-butylnitrone disodium salt (400 mg/ml) and disodium hydrogen phosphate (10.5 mM) at pH 8.5 was purged with nitrogen for 30 minutes. Either 8 ml or 13 ml portions of this solution were then placed in standard 10 ml glass vials (the maximum possible fill volume of a standard 10 ml glass vial is 13 ml). The headspace was not purged with nitrogen. The vials were sealed and stored at +40° C. and 75% relative humidity for two months.

[2] = Stability after purging with different air/nitrogen gas mixtures; type: physicochemical; conditions: 400 mg/ml, pH 8.5; for Final Amount of Aldehyde (II) / Final Amount of Related Substances: 2 months +40° C./75% RH
Experimental: A concentrated aqueous solution of α-(2,4-disulfophenyl)-N-tert-butylnitrone disodium salt (400 mg/ml) and disodium hydrogen phosphate (5.3 mM) at pH 8.5 was purged with different levels of air/nitrogen gas mixtures. The solutions were stored in sealed 10 ml glass vials with a fill volume of 7 ml. The samples were stored for two months at +40° C. and 75% relative humidity.

[3] = Effect of concentration on stability, unbuffered solutions at +5° C.; type: physicochemical
Experimental: In a second study unbuffered aqueous solutions of α-(2,4-disulfophenyl)-N-tert-butylnitrone disodium salt (concentration either 100 mg/ml or 200 mg/ml) were dispensed into 50 ml glass vials and stored at +5° C.

S. aureus = test: Antimicrobial efficacy (European Pharmacopoeia 2000, Chapter 5.1.3); type: cell-based
Experimental: (§1) The antimicrobial efficacy was tested for three different solutions: […] iii) a carbonate buffer control. The tests were performed according to European Pharmacopoeia 2000, Chapter 5.1.3, pages 259 to 260. Seven 10 ml vials were inoculated, one per test organism. During the tests, the vials were stored at controlled room temperature and protected from light. At different time intervals, samples were withdrawn and after appropriate dilutions the numbers of viable microorganisms (colony forming units per ml, CFU/ml) were determined using standard plate count procedures.

E. gergoviae = test: as above; type: cell-based; conditions: for Number of CFUs per ml - Time after Inoculation: E. gergoviae
Experimental: as §1

E. coli = test: as above; type: cell-based
Experimental: as §1

[4] = unbuffered 100 mg/ml, 12 months
[5] = unbuffered 200 mg/ml, 12 months

In the case of `CC(C)(C)[N+]([O-])=Cc1ccc(S(=O)(=O)[O-])cc1S(=O)(=O)[O-].[Na+].[Na+]` [α-(2,4-disulfophenyl)-N-tert-butylnitrone disodium salt], the Initial aldehyde level ([1]; 10.5 mM phosphate, pH 8.5, nitrogen purged, initial) is reported as 0.1%, the “Final Amount of Aldehyde (II)” value ([1]; fill volume 8 ml in 10 ml vial) is reported as 1.1 area % and the “Final Amount of Aldehyde (II)” value ([1]; fill volume 13 ml in 10 ml vial) is reported as 0.6 area %. For the same compound, the “Initial aldehyde (II)” value ([2]; 5.3 mM phosphate, initial) was 0.25 area %, the Initial related substances ([2]; 5.3 mM phosphate, initial) was 0.56 area % and the “Final Amount of Aldehyde (II)” value ([2]; 0% air in purge gas) was 0.57 area %. For the same compound, the “Final Amount of Related Substances” value ([2]; 0% air in purge gas) was 1.3 area %, the “Final Amount of Aldehyde (II)” value ([2]; 6.25% air in purge gas) was 0.68 ± 0.08 (n = 2) area % and the “Final Amount of Related Substances” value ([2]; 6.25% air in purge gas) was 1.5 ± 0.1 (n = 2) area %. The “Final Amount of Aldehyde (II)” value ([2]; 12.5% air in purge gas) was 0.63 ± 0.01 (n = 2) area %, the “Final Amount of Related Substances” value ([2]; 12.5% air in purge gas) was 1.4 area % and the “Final Amount of Aldehyde (II)” value ([2]; 25% air in purge gas) was 0.77 area %. For the same compound, the “Final Amount of Related Substances” value ([2]; 25% air in purge gas) was 1.6 area %, the “Final Amount of Aldehyde (II)” value ([2]; 50% air in purge gas) was 0.93 area % and the “Final Amount of Related Substances” value ([2]; 50% air in purge gas) was 1.9 area %. The “Final Amount of Aldehyde (II)” value ([2]; 100% air in purge gas) was 1.27 area %, the “Final Amount of Related Substances” value ([2]; 100% air in purge gas) was 2.4 area % and the “Amount of Aldehyde (II)” value ([3]; unbuffered 100 mg/ml, 0 months) was 0.2 Area %. For the same compound, the pH ([3]; unbuffered 100 mg/ml, 0 months) was 7.4, the “Amount of Aldehyde (II)” value ([3]; unbuffered 100 mg/ml, 1 month) was 0.5 Area % and the pH ([3]; unbuffered 100 mg/ml, 1 month) was 7.5. The “Amount of Aldehyde (II)” value ([3]; unbuffered 100 mg/ml, 3 months) was 1.0 Area %, the pH ([3]; unbuffered 100 mg/ml, 3 months) was 7.3 and the “Amount of Aldehyde (II)” value ([3]; unbuffered 100 mg/ml, 6 months) was 1.6 Area %. The pH ([3]; unbuffered 100 mg/ml, 6 months) was 7.1, the “Amount of Aldehyde (II)” value [3, 4] was 1.6 Area % and the pH [3, 4] was 6.9. For the same compound, the “Amount of Aldehyde (II)” value ([3]; unbuffered 200 mg/ml, 0 months) was 0.2 Area %, the pH ([3]; unbuffered 200 mg/ml, 0 months) was 7.6 and the “Amount of Aldehyde (II)” value ([3]; unbuffered 200 mg/ml, 1 month) was 0.4 Area %. The pH ([3]; unbuffered 200 mg/ml, 1 month) was 7.6, the “Amount of Aldehyde (II)” value ([3]; unbuffered 200 mg/ml, 3 months) was 0.6 Area % and the pH ([3]; unbuffered 200 mg/ml, 3 months) was 7.4. The “Amount of Aldehyde (II)” value ([3]; unbuffered 200 mg/ml, 6 months) was 0.8 Area %, the pH ([3]; unbuffered 200 mg/ml, 6 months) was 7.4 and the “Amount of Aldehyde (II)” value [3, 5] was 1.1 Area %. For the same compound, the pH [3, 5] was 6.9, the “Number of CFUs per ml - Time after Inoculation” value (from here on “Number of CFUs per ml - Time”) (S. aureus; 10 mg/ml, 6 h) was 4.5 × 10^5 CFUs per ml and the “Number of CFUs per ml - Time” value (S. aureus; 10 mg/ml, 24 h) was 4.5 × 10^3 CFUs per ml. The “Number of CFUs per ml - Time” value (S. aureus; 10 mg/ml, 48 h) was “≦10 CFUs per ml”, the “Number of CFUs per ml - Time” value (S. aureus; 10 mg/ml, 7 days) was less than 1 CFUs per ml and the “Number of CFUs per ml - Time” value (S. aureus; 10 mg/ml, 14 days) was less than 1 CFUs per ml. For the same compound, the “Number of CFUs per ml - Time” value (S. aureus; 10 mg/ml, 21 days) was less than 1 CFUs per ml, the “Number of CFUs per ml - Time” value (S. aureus; 10 mg/ml, 28 days) was less than 1 CFUs per ml and the “Number of CFUs per ml - Time” value (S. aureus; 10 mg/ml, <1 min) was 2.0 × 10^6 CFUs per ml. For the same compound, the “Number of CFUs per ml - Time” value (S. aureus; 400 mg/ml, 6 h) was 6.7 × 10^5 CFUs per ml, the “Number of CFUs per ml - Time” value (S. aureus; 400 mg/ml, 24 h) was 8.7 × 10^2 CFUs per ml and the “Number of CFUs per ml - Time” value (S. aureus; 400 mg/ml, 48 h) was 3.8 × 10^2 CFUs per ml. The “Number of CFUs per ml - Time” value (S. aureus; 400 mg/ml, 7 days) was less than 1 CFUs per ml, the “Number of CFUs per ml - Time” value (S. aureus; 400 mg/ml, 14 days) was less than 1 CFUs per ml and the “Number of CFUs per ml - Time” value (S. aureus; 400 mg/ml, 21 days) was less than 1 CFUs per ml. The “Number of CFUs per ml - Time” value (S. aureus; 400 mg/ml, 28 days) was less than 1 CFUs per ml, the “Number of CFUs per ml - Time” value (S. aureus; 400 mg/ml, <1 min) was 3.3 × 10^6 CFUs per ml and the “Number of CFUs per ml - Time” value (E. gergoviae; 10 mg/ml, 6 h) was 2.0 × 10^5 CFUs per ml. For the same compound, the “Number of CFUs per ml - Time” value (E. gergoviae; 10 mg/ml, 24 h) was “≦10 CFUs per ml”, the “Number of CFUs per ml - Time” value (E. gergoviae; 10 mg/ml, 48 h) was less than 1 CFUs per ml and the “Number of CFUs per ml - Time” value (E. gergoviae; 10 mg/ml, 7 days) was less than 1 CFUs per ml. The “Number of CFUs per ml - Time” value (E. gergoviae; 10 mg/ml, 14 days) was less than 1 CFUs per ml, the “Number of CFUs per ml - Time” value (E. gergoviae; 10 mg/ml, 21 days) was less than 1 CFUs per ml and the “Number of CFUs per ml - Time” value (E. gergoviae; 10 mg/ml, 28 days) was less than 1 CFUs per ml. For the same compound, the “Number of CFUs per ml - Time” value (E. gergoviae; 10 mg/ml, <1 min) was 8.0 × 10^5 CFUs per ml, the “Reduction in colony forming units per ml (CFU/ml)” value (E. gergoviae; 400 mg/ml, E. gergovia, within 6 hours) was ≥ 10^3 fold and the “Number of CFUs per ml - Time” value (E. gergoviae; 400 mg/ml, 6 h) was 1.3 × 10^2 CFUs per ml. For the same compound, the “Number of CFUs per ml - Time” value (E. gergoviae; 400 mg/ml, 24 h) was less than 1 CFUs per ml, the “Number of CFUs per ml - Time” value (E. gergoviae; 400 mg/ml, 48 h) was less than 1 CFUs per ml and the “Number of CFUs per ml - Time” value (E. gergoviae; 400 mg/ml, 7 days) was less than 1 CFUs per ml. The “Number of CFUs per ml - Time” value (E. gergoviae; 400 mg/ml, 14 days) was less than 1 CFUs per ml, the “Number of CFUs per ml - Time” value (E. gergoviae; 400 mg/ml, 21 days) was less than 1 CFUs per ml and the “Number of CFUs per ml - Time” value (E. gergoviae; 400 mg/ml, 28 days) was less than 1 CFUs per ml. For the same compound, the “Number of CFUs per ml - Time” value (E. gergoviae; 400 mg/ml, <1 min) was 5.2 × 10^5 CFUs per ml, the “Number of CFUs per ml - Time” value (E. coli; 10 mg/ml, 6 h) was 9.0 × 10^5 CFUs per ml and the “Number of CFUs per ml - Time” value (E. coli; 10 mg/ml, 24 h) was 5.0 × 10^4 CFUs per ml. For the same compound, the “Number of CFUs per ml - Time” value (E. coli; 10 mg/ml, 48 h) was “≦10 CFUs per ml”, the “Number of CFUs per ml - Time” value (E. coli; 10 mg/ml, 7 days) was less than 1 CFUs per ml and the “Number of CFUs per ml - Time” value (E. coli; 10 mg/ml, 14 days) was less than 1 CFUs per ml. For the same compound, the “Number of CFUs per ml - Time” value (E. coli; 10 mg/ml, 21 days) was less than 1 CFUs per ml, the “Number of CFUs per ml - Time” value (E. coli; 10 mg/ml, 28 days) was less than 1 CFUs per ml and the “Number of CFUs per ml - Time” value (E. coli; 10 mg/ml, <1 min) was 1.5 × 10^6 CFUs per ml. The “Number of CFUs per ml - Time” value (E. coli; 400 mg/ml, 6 h) was 4.1 × 10^4 CFUs per ml, the “Number of CFUs per ml - Time” value (E. coli; 400 mg/ml, 24 h) was less than 1 CFUs per ml and the “Number of CFUs per ml - Time” value (E. coli; 400 mg/ml, 48 h) was less than 1 CFUs per ml. For the same compound, the “Number of CFUs per ml - Time” value (E. coli; 400 mg/ml, 7 days) was less than 1 CFUs per ml, the “Number of CFUs per ml - Time” value (E. coli; 400 mg/ml, 14 days) was less than 1 CFUs per ml and the “Number of CFUs per ml - Time” value (E. coli; 400 mg/ml, 21 days) was less than 1 CFUs per ml. The “Number of CFUs per ml - Time” value (E. coli; 400 mg/ml, 28 days) was less than 1 CFUs per ml and the “Number of CFUs per ml - Time” value (E. coli; 400 mg/ml, <1 min) was 3.8 × 10^5 CFUs per ml.
